Measurements: US20200181104A1, “SSAO INHIBITORS AND USES THEREOF” (METACRINE, INC., priority 2018, published 2020)

Each compound was assayed against T1, Recombinant Human SSAO/VAP-1/AOC3 (Homo sapiens, UniProt Q16853) (assay: Human Semicarbazide-Sensitive Amine Oxidase (SSAO) Assay). Details: recombinant enzyme, 30 minutes preincubation at 37° C., benzylamine substrate, Amplex Ultra Red/HRP fluorescence.
T1 construct: purchased R&D systems 3957-AO
T1 sequence (Q16853 1-763): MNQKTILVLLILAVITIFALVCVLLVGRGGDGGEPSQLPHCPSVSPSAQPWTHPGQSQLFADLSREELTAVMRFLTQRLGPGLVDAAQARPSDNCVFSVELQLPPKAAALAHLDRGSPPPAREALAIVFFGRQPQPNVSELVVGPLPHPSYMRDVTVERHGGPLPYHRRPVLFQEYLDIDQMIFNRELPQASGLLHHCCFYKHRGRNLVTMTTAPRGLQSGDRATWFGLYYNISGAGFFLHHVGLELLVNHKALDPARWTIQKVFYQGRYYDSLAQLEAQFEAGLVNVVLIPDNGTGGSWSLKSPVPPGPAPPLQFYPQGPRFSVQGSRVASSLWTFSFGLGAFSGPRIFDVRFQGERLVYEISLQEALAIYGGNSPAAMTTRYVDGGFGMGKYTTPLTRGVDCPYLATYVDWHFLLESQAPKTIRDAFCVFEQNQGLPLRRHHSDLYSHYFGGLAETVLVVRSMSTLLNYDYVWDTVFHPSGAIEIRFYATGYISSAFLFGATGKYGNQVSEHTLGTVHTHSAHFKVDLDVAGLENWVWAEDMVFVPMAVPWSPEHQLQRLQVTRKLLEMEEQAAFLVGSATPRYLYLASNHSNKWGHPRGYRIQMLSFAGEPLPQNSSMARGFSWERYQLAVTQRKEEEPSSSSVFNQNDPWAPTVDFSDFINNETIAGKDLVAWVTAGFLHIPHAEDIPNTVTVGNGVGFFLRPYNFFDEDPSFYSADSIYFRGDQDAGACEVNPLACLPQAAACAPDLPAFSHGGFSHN
Format: biochemical
Procedure: Compounds were dissolved in DMSO to provide a Concentration Response Curve (CRC; at 500 times the final concentration) over a range of 6-10 dilutions.
Recombinant Human SSAO/VAP-1/AOC3 (R&D systems; Catalog #3957-AO) was used to screen compound potency in vitro, according to previously described methods (J Pharmacol Exp Ther. 2013 November; 347(2):365-74). SSAO enzyme was suspended in 50 mM HEPES buffer to a working concentration of 2.5 μg/ml and 40 μL of this enzyme mixture was then added to each well of a F16 Black Maxisorp 96 well Plate (Nunc, Catalog #475515). Ten microliters of each test compound (at 5 times the final concentration) were added to each well, resulting in a final well volume of 50 μL of the enzyme and inhibitor mixture. The compounds were preincubated with the enzyme for 30 minutes at 37° C., prior to the addition of a 40 μL volume of Amplex Ultra Red (125 uM AUR; Molecular Probes, Catalog # A36006)/Horseradish peroxidase (2.5 U/ml HRP; Sigma-Aldrich Catalog # P8375) oxidase detection reagent containing cytochrome C ([…]; Sigma-Aldrich Catalog # C7752). Cytochrome C was included in the AUR/HRP detection mixture to reduce the background fluorescence that can occur via the spontaneous redox reaction between AUR and HRP. The SSAO enzyme reaction was then initiated by adding 10 μL of the SSAO substrate, benzylamine (Sigma-Aldrich Catalog # B5136), and SSAO activity was measured in kinetic mode over a 30-120 minute sampling period (excit. 544 nm; emit 590 nm; cut off 570 nm; medium gain) to obtain IC50 values for enzyme activity in each treatment well.

Row | IC50 [nM] | SMILES
1 | ≤ 10 | CN(C(=O)C12CCC(c3ccc(OC/C(=C/F)CN)cc3)(CC1)CC2)C1CCOCC1 [Compound 2.16, (E)-4-(4-((2-(amino-methyl)-3-fluoroallyl)oxy)phenyl)-N-methyl-N-(tetrahydro-2H-pyran-4-yl)bicyclo[2.2.2] octane-1-carboxamide]
2 | ≤ 10 | CNC(=O)CCNC(=O)C12CCC(c3ccc(OC/C(=C/F)CN)cc3)(CC1)CC2 [Compound 2.17, (E)-4-(4-((2-(amino-methyl)-3-fluoroallyl)oxy)phenyl)-N-(3-(methylamino)-3-oxopropyl)bicyclo[2.2.2] octane-1-carboxamide]
3 | ≤ 10 | CC1(NC(=O)C23CCC(c4ccc(OC/C(=C/F)CN)cc4)(CC2)CC3)CCOCC1 [Compound 2.18, (E)-4-(4-((2-(amino-methyl)-3-fluoroallyl)oxy)phenyl)-N-(4-methyltetrahydro-2H-pyran-4-yl)bicyclo [2.2.2]octane-1-carboxamide]
4 | ≤ 10 | CC(NC(=O)C12CCC(c3ccc(OC/C(=C/F)CN)cc3)(CC1)CC2)C1CCOCC1 (centres unmarked) [Compound 2.19, (E)-4-(4-((2-(amino-methyl)-3-fluoroallyl)oxy)phenyl)-N-(1-(tetrahydro-2H-pyran-4-yl)ethyl)bicyclo[2.2.2] octane-1-carboxamide]
5 | ≤ 10 | NC/C(=C\F)COc1ccc(C23CCC(C(=O)NCC4CCOCC4)(CC2)CC3)cc1 [Compound 2.20]
6 | ≤ 10 | NC/C(=C\F)COc1ccc(C23CCC(C(=O)NC4CCOC4)(CC2)CC3)cc1 (centres unmarked) [Compound 2.21, (E)-4-(4-((2-(amino-methyl)-3-fluoroallyl)oxy)phenyl)-N-(tetrahydrofuran-3-yl)bicyclo[2.2.2]octane-1-carboxamide]
7 | ≤ 10 | C[C@H]1COCCN1C(=O)C12CCC(c3ccc(OC/C(=C/F)CN)cc3)(CC1)CC2 [Compound 2.22, (S,E)-(4-(4-((2-(aminomethyl)-3-fluoroallyl)oxy)phenyl)bicyclo[2.2.2]octan-1-yl)(3-methylmorpholino) methanone]
8 | ≤ 10 | CC(C)NC(=O)C12CCC(c3ccc(OC/C(=C/F)CN)cc3)(CC1)CC2 [Compound 2.23, (E)-4-(4-((2-(aminomethyl)-3-fluoroallyl)oxy)phenyl)-N-isopropylbicyclo [2.2.2]octane-1-carboxamide]
9 | ≤ 10 | NC/C(=C\F)COc1ccc(C23CCC(C(=O)N4CCCCC4)(CC2)CC3)cc1 [Compound 2.24, (E)-(4-(4-((2-(amino-methyl)-3-fluoroallyl)oxy)phenyl)bicyclo [2.2.2]octan-1-yl)(piperidin-1-yl)methanone]
10 | ≤ 10 | NC/C(=C\F)COc1ccc(C23CCC(C(=O)N4CCCC4)(CC2)CC3)cc1 [Compound 2.25, (E)-(4-(4-((2-(aminomethyl)-3-fluoroallyl)oxy)phenyl)bicyclo [2.2.2]octan-1-yl)(pyrrolidin-1-yl)methanone]
11 | ≤ 10 | NC/C(=C\F)COc1ccc(C23CCC(C(=O)NCCCCl)(CC2)CC3)cc1 [Compound 2.26, (E)-4-(4-((2-(aminomethyl)-3-fluoroallyl)oxy)phenyl)-N-(3-chloropropyl)bicyclo[2.2.2] octane-1-carboxamide]
12 | ≤ 10 | C[C@H](NC(=O)C12CCC(c3ccc(OC/C(=C/F)CN)cc3)(CC1)CC2)C1CCOCC1 [Compound 2.27, (S,E)-4-(4-((2-(aminomethyl)-3-fluoroallyl)oxy)phenyl)-N-(1-(tetrahydro-2H-pyran-4-yl)ethyl)bicyclo[2.2.2]octane-1-carboxamide]
13 | ≤ 10 | C[C@@H](NC(=O)C12CCC(c3ccc(OC/C(=C/F)CN)cc3)(CC1)CC2)C1CCOCC1 [Compound 2.28, (R,E)-4-(4-((2-(aminomethyl)-3-fluoroallyl)oxy)phenyl)-N-(1-(tetrahydro-2H-pyran-4-yl)ethyl)bicyclo[2.2.2]octane-1-carboxamide]
14 | ≤ 10 | NC/C(=C\F)COc1ccc(C23CCC(C(=O)N4CC(O)C4)(CC2)CC3)cc1 [Compound 2.29, (E)-(4-(4-((2-(aminomethyl)-3-fluoroallyl)oxy)phenyl)bicyclo [2.2.2]octan-1-yl)(3-hydroxyazetidin-1-yl)methanone]
15 | ≤ 10 | NC/C(=C\F)COc1ccc(C23CCC(C(=O)N4CCN(CC(F)(F)F)CC4)(CC2)CC3)cc1 [Compound 2.30, (E)-(4-(4-((2-(aminomethyl)-3-fluoroallyl)oxy)phenyl)bicyclo [2.2.2]octan-1-yl)(4-(2,2,2-trifluoroethyl)piperazin-1-yl)methanone]
16 | ≤ 10 | CC(=O)N1CCN(C(=O)C23CCC(c4ccc(OC/C(=C/F)CN)cc4)(CC2)CC3)CC1 [Compound 2.31, (E)-1-(4-(4-(4-((2-(aminomethyl)-3-fluoroallyl)oxy)phenyl)bicyclo [2.2.2]octane-1-carbonyl)piperazin-1-yl)ethanone]
17 | ≤ 10 | COCCOCCNC(=O)C12CCC(c3ccc(OC/C(=C/F)CN)cc3)(CC1)CC2 [Compound 2.32, (E)-4-(4-((2-(aminomethyl)-3-fluoroallyl)oxy)phenyl)-N-(2-(2-methoxyethoxy)ethyl) bicyclo[2.2.2]octane-1-carboxamide]
18 | ≤ 10 | NC/C(=C\F)COc1ccc(C23CCC(C(=O)NCC4(F)CCOCC4)(CC2)CC3)cc1 [Compound 2.33, (E)-4-(4-((2-(aminomethyl)-3-fluoroallyl)oxy)phenyl)-N-((4-fluorotetrahydro-2H-pyran-4-yl)methyl)bicyclo[2.2.2]octane-1-carboxamide]
19 | ≤ 10 | CC(C)(CO)NC(=O)C12CCC(c3ccc(OC/C(=C/F)CN)cc3)(CC1)CC2 [Compound 2.34, (E)-4-(4-((2-(aminomethyl)-3-fluoroallyl)oxy)phenyl)-N-(1-hydroxy-2-methylpropan-2-yl)bicyclo[2.2.2]octane-1-carboxamide]
20 | ≤ 10 | NC/C(=C\F)COc1ccc(C23CCC(C(=O)NCC4(O)CCOCC4)(CC2)CC3)cc1 [Compound 2.35, (E)-4-(4-((2-(aminomethyl)-3-fluoroallyl)oxy)phenyl)-N-((4-hydroxytetrahydro-2H-pyran-4-yl)methyl)bicyclo[2.2.2]octane-1-carboxamide]
21 | ≤ 10 | CC1(CNC(=O)C23CCC(c4ccc(OC/C(=C/F)CN)cc4)(CC2)CC3)CCOCC1 [Compound 2.36, (E)-4-(4-((2-(aminomethyl)-3-fluoroallyl)oxy)phenyl)-N-((4-methyltetrahydro-2H-pyran-4-yl)methyl)bicyclo[2.2.2]octane-1-carboxamide]
22 | ≤ 10 | CN(C)C(=O)CCNC(=O)C12CCC(c3ccc(OC/C(=C/F)CN)cc3)(CC1)CC2 [Compound 2.37, (E)-4-(4-((2-(aminomethyl)-3-fluoroallyl)oxy)phenyl)-N-(3-(dimethylamino)-3-oxopropyl)bicyclo[2.2.2]octane-1-carboxamide]
23 | ≤ 10 | CC(C)N(CCO)C(=O)C12CCC(c3ccc(OC/C(=C/F)CN)cc3)(CC1)CC2 [Compound 2.38, (E)-4-(4-((2-(aminomethyl)-3-fluoroallyl)oxy)phenyl)-N-(2-hydroxyethyl)-N-isopropylbicyclo[2.2.2]octane-1-carboxamide]
24 | ≤ 10 | COC1CN(C(=O)C23CCC(c4ccc(OC/C(=C/F)CN)cc4)(CC2)CC3)C1 [Compound 2.39, (E)-(4-(4-((2-(aminomethyl)-3-fluoroallyl)oxy)phenyl)bicyclo [2.2.2]octan-1-yl)(3-methoxyazetidin-1-yl)methanone]
25 | ≤ 10 | NC/C(=C\F)COc1ccc(C23CCC(C(=O)N4CCC4)(CC2)CC3)cc1 [Compound 2.40, (E)-(4-(4-((2-(aminomethyl)-3-fluoroallyl)oxy)phenyl)bicyclo [2.2.2]octan-1-yl)(azetidin-1-yl)methanone]
26 | ≤ 10 | NC/C(=C\F)COc1ccc(C23CCC(C(=O)NC4(C5CCOCC5)CC4)(CC2)CC3)cc1 [Compound 2.41, (E)-4-(4-((2-(aminomethyl)-3-fluoroallyl)oxy)phenyl)-N-(1-(tetrahydro-2H-pyran-4-yl)cyclopropyl)bicyclo[2.2.2] octane-1-carboxamide]
